In the assay the target is wild-type cap-binding domain of PB2 (Influenza A virus, UniProt P31345, R389K). Also on record: species or system Influenza A/Victoria/3/1975(H3N2).

Here are results for two molecules from patent publication US9045248B2 (priority 2007, dated 2015).

One may read the Kd as the concentration at which binding is half-saturated. High values mean weaker binding, low ones tighter binding. Molecule `Nc1nc2c(ncn2[C@@H]2O[C@H](COP(=O)(O)OP(=O)(O)OP(=O)(O)O)[C@@H](O)[C@H]2O)c(=O)[nH]1` [GTP] yielded a Kd of 1020 ± 100 µM.

Regarding `C[n+]1cn([C@@H]2O[C@H](COP(=O)(O)OP(=O)(O)OP(=O)(O)O)[C@@H](O)[C@H]2O)c2nc(N)[nH]c(=O)c21` [m^7GTP, 7-methyl-guanosine triphosphate], binding was characterised by a dissociation constant (Kd) of 177 ± 34 µM.
